{"source": "patent US8889591B2", "about": "“Herbicidal compositions comprising 4-amino-3-chloro-5-fluoro-6-(4-chloro-2-fluoro-3-methoxyphenyl)pyridine-2-carboxylic acid or a derivative thereof and bromobutide, daimuron, oxaziclomefone or pyributicarb” (Dow Agrosciences LLC, priority 2012, dated 2014)", "test_in_all_cases": "In-water applied greenhouse weed control, transplanted paddy rice system", "conditions_in_all_cases": "in-water application", "key": {"FIMMI": {"system": "FIMMI", "type": "in vivo, Fimbristylis miliacea (L.) Vahl", "experimental": "(§1) Weed seeds or nutlets of the desired test plant species were planted in puddled soil (mud) prepared by mixing a shredded, non-sterilized mineral soil (50.5 percent silt, 25.5 percent clay, and 24 percent sand, with a pH of about 7.6 and an organic matter content of about 2.9 percent) and water at a 1:1 volumetric ratio. The prepared mud was dispensed in 365 mL aliquots into 16-ounce (oz.) non-perforated plastic pots with a surface area of 86.59 square centimeters (cm^2) leaving a headspace of 3 centimeters (cm) in each pot. Mud was allowed to dry overnight prior to planting or transplanting. Rice seeds were planted in Sun Gro MetroMix® 306 planting mixture, which typically has a pH of 6.0 to 6.8 and an organic matter content of about 30 percent, in plastic plug trays. Seedlings at the second or third leaf stage of growth were transplanted into 840 mL of mud contained in 32-oz. non-perforated plastic pots with a surface area of 86.59 cm^2 4 days prior to herbicide application. The paddy was created by filling the headspace of the pots with 2.5 to 3 cm of water. When required to ensure good germination and healthy plants, a fungicide treatment and/or other chemical or physical treatment was applied. The plants were grown for 4-22 days in a greenhouse with an approximate 14 h photoperiod which was maintained at about 29° C. during the day and 26° C. during the night. Nutrients were added as Osmocote® (19:6:12, N:P:K+ minor nutrients) at 2 g per 16-oz. pot and 4 g per 32-oz. pot. Water was added on a regular basis to maintain the paddy flood, and supplemental lighting was provided with overhead metal halide 1000-Watt lamps as necessary. The plants were employed for testing when they reached the first through fourth true leaf stage.\n(§2) Treatments consisted of the acid or esters of 4-amino-3-chloro-5-fluoro-6-(4-chloro-2-fluoro-3-methoxy-phenyl)pyridine-2-carboxylic acid (compound A) each formulated as an SC and various herbicidal components alone and in combination. Forms of compound A were applied on an acid equivalent basis.\n(§3) Other herbicidal components were applied on an active ingredient basis and included daimuron formulated as an EC, bromobutide (technical grade material), and oxaziclomefone (technical grade material).\n(§4) Treatment requirements for each compound or herbicidal component were calculated based upon the rates being tested, the concentration of active ingredient or acid equivalent in the formulation, an application volume of 2 mL per component per pot, and an application area of 86.59 cm^2 per pot.\n(§5) For formulated compounds, a measured amount was placed in an individual 100 or 200 mL glass vial and was dissolved in a volume of 1.25% (v/v) Agri-Dex® crop oil concentrate to obtain application solutions.\n(§6) For technical grade compounds, a weighed amount was placed in an individual 100 to 200 mL glass vial and was dissolved in a volume of acetone to obtain concentrated stock solutions. […] The concentrated stock solutions obtained were diluted with an equivalent volume of an aqueous mixture containing 2.5% (v/v) crop oil concentrate so that the final application solutions contained 1.25% (v/v) crop oil concentrate.\n(§7) Applications were made by injecting, with a pipetter, appropriate amounts of the application solutions, individually and sequentially, into the aqueous layer of the paddy. Control plants were treated in the same manner with the solvent blank. Applications were made so that all treated plant material received the same concentrations of acetone and crop oil concentrate.\n(§8) The treated plants and control plants were placed in a greenhouse as described above and water was added as needed to maintain a paddy flood. After approximately 3 weeks the condition of the test plants as compared with that of the untreated plants was determined visually and scored on a scale of 0 to 100 percent where 0 corresponds to no injury or growth inhibition and 100 corresponds to complete kill. […]"}, "CYPRO": {"system": "CYPRO", "type": "in vivo, Cyperus rotundus L.", "experimental": "as §1, §2, §3, §4, §5, §6, §7, §8"}, "ECHCG": {"system": "ECHCG", "type": "in vivo, Echinochloa crusgalli (L.) Beauv.", "experimental": "Weed seeds or nutlets of the desired test plant species were planted in puddled soil (mud) prepared by mixing a shredded, non-sterilized mineral soil (50.5 percent silt, 25.5 percent clay, and 24 percent sand, with a pH of about 7.6 and an organic matter content of about 2.9 percent) and water at a 1:1 volumetric ratio. The prepared mud was dispensed in 365 mL aliquots into 16-ounce (oz.) non-perforated plastic pots with a surface area of 86.59 square centimeters (cm^2) leaving a headspace of 3 centimeters (cm) in each pot. Mud was allowed to dry overnight prior to planting or transplanting. Rice seeds were planted in Sun Gro MetroMix® 306 planting mixture, which typically has a pH of 6.0 to 6.8 and an organic matter content of about 30 percent, in plastic plug trays. Seedlings at the second or third leaf stage of growth were transplanted into 840 mL of mud contained in 32-oz. non-perforated plastic pots with a surface area of 86.59 cm^2 4 days prior to herbicide application. The paddy was created by filling the headspace of the pots with 2.5 to 3 cm of water. […]\nas §4\nFor formulated compounds, a measured amount was placed in an individual 100 or 200 mL glass vial and was dissolved in a volume of 1.25% (v/v) Agri-Dex® crop oil concentrate to obtain application solutions. […]\nas §8"}, "ECHOR": {"system": "ECHOR", "type": "in vivo, Echinochloa oryzoides (Ard.) Fritsch", "experimental": "as §1, §2, §3, §4, §5, §6, §7, §8"}, "[1]": {"conditions": "Compound A Benzyl Ester 8 gae/ha alone"}, "[2]": {"conditions": "Compound A Benzyl Ester 16 gae/ha alone"}, "[3]": {"conditions": "Compound A Benzyl Ester 32 gae/ha alone"}, "[4]": {"conditions": "Compound A Benzyl Ester 8.75 gae/ha alone"}}}
{"smiles": "COc1c(Cl)ccc(-c2nc(C(=O)OCc3ccccc3)c(Cl)c(N)c2F)c1F", "note": "[Compound A Benzyl Ester]", "values": [{"measurement": "Visual Weed Control (%) - 19 DAA FIMMI Obs", "setting": "FIMMI; [1]", "result": 0, "unit": "%"}, {"measurement": "Visual Weed Control (%) - 21 DAA FIMMI Obs", "setting": "FIMMI; [1]", "result": 15, "unit": "%"}, {"measurement": "Visual Weed Control (%) - 19 DAA FIMMI Obs", "setting": "FIMMI; [2]", "result": 0, "unit": "%"}, {"measurement": "Visual Weed Control (%) - 21 DAA FIMMI Obs", "setting": "FIMMI; [2]", "result": 65, "unit": "%"}, {"measurement": "Visual Weed Control (%) - 21 DAA FIMMI Obs", "setting": "FIMMI; [3]", "result": 75, "unit": "%"}, {"measurement": "Visual Weed Control (%) - 19 DAA CYPRO Obs", "setting": "CYPRO; [1]", "result": 50, "unit": "%"}, {"measurement": "Visual Weed Control (%) - 21 DAA CYPRO Obs", "setting": "CYPRO; [4]", "result": 60, "unit": "%"}, {"measurement": "Visual Weed Control (%) - 19 DAA CYPRO Obs", "setting": "CYPRO; [2]", "result": 85, "unit": "%"}, {"measurement": "Visual Weed Control (%) - 19 DAA CYPRO Obs", "setting": "CYPRO; [3]", "result": 90, "unit": "%"}, {"measurement": "Visual Weed Control (%) - 21 DAA ECHCG Obs", "setting": "ECHCG; Compound A Benzyl Ester 4.38 gae/ha alone", "result": 40, "unit": "%"}, {"measurement": "Visual Weed Control (%) - 21 DAA ECHCG Obs", "setting": "ECHCG; [4]", "result": 50, "unit": "%"}, {"measurement": "Visual Weed Control (%) - 21 DAA ECHOR Obs", "setting": "ECHOR; [1]", "result": 8, "unit": "%"}, {"measurement": "Visual Weed Control (%) - 21 DAA ECHOR Obs", "setting": "ECHOR; [2]", "result": 5, "unit": "%"}, {"measurement": "Visual Weed Control (%) - 21 DAA ECHOR Obs", "setting": "ECHOR; [3]", "result": 13, "unit": "%"}]}
